This note sets out measurements from the supplement of paper PMC10307832.

Assay in all cases: relative viability (nuclei count vs DMSO), 5 days (fraction); higher = more cells survive
Compound in experiment [1]: NS(=O)(=O)OC[C@@H]1C[C@@H](n2ccc3c(N[C@H]4CCc5ccccc54)ncnc32)C[C@@H]1O [MLN4924] + Cc1nc(Nc2ncc(C(=O)Nc3c(C)cccc3Cl)s2)cc(N2CCN(CCO)CC2)n1 [Dasatinib] (partner 0.075 µM)
In short, it runs like this:
(§1)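 Five library-drug doses in √10 steps were combined with a fixed anchor-drug dose, or a single drug was given alone, by pin tool to lung cancer cell lines in 1536-well plates the day after seeding. Nuclei were stained and counted after 5 days. Relative viability is the nuclei count in treated wells over that in vehicle wells, taken as the median of duplicate plates.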

Compound in experiment [2]: C1CC(C1)(C(=O)O)C(=O)O.[NH2-].[NH2-].[Pt+2] [Carboplatin] + CCNC(=O)c1noc(-c2cc(C(C)C)c(O)cc2O)c1-c1ccc(CN2CCOCC2)cc1 [Luminespib] (partner 0.01 µM)
In short, it runs like this:
as §1

Compound in experiment [3]: C1CC(C1)(C(=O)O)C(=O)O.[NH2-].[NH2-].[Pt+2] [Carboplatin] + CC(C)C[C@H](NC(=O)[C@H](Cc1ccccc1)NC(=O)c1cnccn1)B(O)O [Bortezomib] (partner 0.002 µM)
In short, it runs like this: as §1

Compound in experiment [4]: NS(=O)(=O)OC[C@@H]1C[C@@H](n2ccc3c(N[C@H]4CCc5ccccc54)ncnc32)C[C@@H]1O [MLN4924] + C[C@]1(O)C[C@@H](c2nc(-c3ccc4ccc(-c5ccccc5)nc4c3)c3c(N)nccn32)C1 [Linsitinib] (partner 1 µM)
In short, it runs like this: as §1

Take UMC-11: the relative viability was determined as 0.505 in experiment [1] (first compound 0.04 µM); 0.349 in experiment [1] (first compound 0.1265 µM); 0.251 in experiment [1] (first compound 0.4 µM); 0.151 in experiment [1] (first compound 1.265 µM); 0.177 in experiment [1] (first compound 4 µM); 0.961 in experiment [2] (first compound 0.08 µM). Moreover, the relative viability in experiment [2] (first compound 0.253 µM) is 1.01; in experiment [2] (first compound 0.8 µM), 1; in experiment [2] (first compound 2.53 µM), 0.955; in experiment [2] (first compound 8 µM), 0.651; in experiment [3] (first compound 0.08 µM) it was 0.941; in experiment [3] (first compound 0.253 µM) it was 0.904. The relative viability in experiment [3] (first compound 0.8 µM) was determined as 0.675; in experiment [3] (first compound 2.53 µM) it was 0.622; in experiment [3] (first compound 8 µM), 0.382; in experiment [4] (first compound 0.04 µM), 0.645; in experiment [4] (first compound 0.1265 µM), 0.331; in experiment [4] (first compound 0.4 µM), 0.238. The relative viability worked out at 0.194 in experiment [4] (first compound 1.265 µM) and 0.153 in experiment [4] (first compound 4 µM).
